Data published in US10004718B2, “Erythropoietin expression promoter” (TOHOKU UNIVERSITY, priority 2012, dated 2018).

What was measured:
[1] = test system: mouse erythropoietin gene promoter; experiment: Luciferase reporter assay of erythropoietin gene promoter in Hep3B cells; format: cell-based; conditions: for effect on erythropoietin gene promoter transcriptional activity compared with HIF activator FG-4592: compound 10 μM vs FG-4592 10 μM, 20% O2; for transcription level of the erythropoietin gene promoter: compound 10 μM, 20% O2, 48 hours, vs 20% O2/DMSO
Procedure: A plasmid vector HE-mPro-luc for luciferase assay on the promoter activity of the 5′ upstream transcriptional regulatory region of the mouse erythropoietin gene was prepared by cleaving, with restriction enzymes XbaI and SacI, a region having a length from −571 to +53 bp starting at the translation initiation site of exon 1 of the mouse erythropoietin gene, and inserting this region to a luciferase reporter vector pXP2 (Nordeen S K. BioTechniques. 6: […], 1988).
The Hep3B cells were adjusted to 10×10^4 cells/well in a 24-well cell culture plate and subcultured. Under microscopy, the Hep3B cells that reached a cell density of 70 to 80% were transfected with the plasmid DNA for luciferase reporter assay. The composition of a solution for transfection was prepared by mixing 2 μg of HE-mPro-luc, 50 ng of pRh-TK (manufactured by Promega K.K.), and 2 μl of Lipofectamine 2000 (manufactured by Invitrogen Corp.) with 100 μl of OptiMEM-I (manufactured by Life Technologies, Inc./GIBCO) per well, followed by incubation at room temperature for 20 minutes. The solution was added to the Hep3B cells in the 24-well cell culture plate preincubated in 0.5 ml of serum-free OptiMEM-I medium, and then incubated for 4 hours without serum and antibiotics under conditions of 37° C. and 5% CO2/20% O2. Then, the medium was replaced with RPMI1640 common medium 1 supplemented with each of 5 types of compounds (compounds #2, 4, 5, 18, and 21) at a concentration of 10 μM, followed by further incubation for 48 hours under conditions of 37° C. and 5% CO2/20% O2. Then, the medium was replaced with 0.5 ml of serum-free PBS, and the cells were gently washed, followed by the removal of PBS by suction. This operation was carried out twice. Then, 100 μl of passive lysis buffer (manufactured by Promega K.K.) was added thereto, and the cells were lysed by mixing at room temperature for 20 minutes. Hep3B cells cultured in the absence of the compound (DMSO added [1%]) (“20% O2/DMSO” of FIG. 3) were used as a negative control. Hep3B cells cultured in the presence of an HIF activator (FG-4592 [10 μM]) (“20% O2/FG4592” of FIG. 3) and Hep3B cells cultured under hypoxia (1% O2) conditions and in the absence of the compound (DMSO added [1%]) (“1% O2/DMSO” of FIG. 3) were used as positive controls.
Dual Luciferase Reporter Assay System (manufactured by Promega K.K.) was used in the luciferase reporter assay. The amounts of firefly and Renilla luciferases were measured using a luminometer Lumat LB9507 (manufactured by BERTHOLD TECHNOLOGIES GmbH & Co. KG). The amount of Fire fly luciferase was divided by the amount of Renilla luciferase to calculate the transcriptional activity of the erythropoietin gene.

[2] = test system: mRNA expression of the erythropoietin gene; experiment: Quantitative PCR of erythropoietin mRNA in Hep3B cells; format: cell-based, human; conditions: compound 10 μM, 20% O2, GAPDH internal standard
Procedure: Of the 5 types of compounds confirmed in Example 4 to be effective for promoting the transcriptional activity of the erythropoietin gene promoter, 4 types of compounds (compounds #2, 4, 5, and 21) were selected. From Hep3B cells cultured in RPMI1640 common medium 1 supplemented with each of these 4 types of compounds at a concentration of 10 μM, total RNA was extracted using TriPure Isolation Reagent (manufactured by F. Hoffmann La Roche AG) in a 6-well cell culture plate. Hep3B cells cultured in the absence of the compound (DMSO added) (“20% O2/DMSO” of FIG. 4) were used as a negative control. Hep3B cells cultured in the presence of a GATA-specific inhibitor (K7174 [10 μM]) (“20% O2/K7174” of FIG. 4) and Hep3B cells cultured under hypoxia (1% O2) conditions and in the absence of the compound (DMSO added [1%]) (“1% O2/DMSO” of FIG. 4) were used as positive controls.
The extracted RNA was used as a template to synthesize cDNA using SuperScript III RTS First-strand kit (manufactured by Invitrogen Corp.). Then, the expression of the erythropoietin mRNA was measured by quantitative PCR with GAPDH as an internal standard. The quantitative PCR was carried out using TaqMan® Gene Expression Assays (using GAPDH; Assay ID: Rn99999916_s1, and human erythropoietin; Assay ID: Hs00171267_ml TaqMan® probes [manufactured by Applied Biosystems Inc.]) and Step One Plus Real-Time PCR System (manufactured by Applied Biosystems Inc.).

[3] = test system: Leigh cells; experiment: Cell death caused by oxidative stress (BSO) in Leigh syndrome patient fibroblasts; format: cell-based, human; conditions: compound 10 μM, 4 days after BSO treatment
Procedure: In Examples 2 to 7 and Reference Example 1 below, an erythropoietin-producing human hepatocellular carcinoma cell Hep3B (obtained from ATCC [American Type Culture Collection]) was cultured and maintained under conditions of 5% CO2/20% O2 and 37° C. in an RPMI1640 (manufactured by Life Technologies, Inc./GIBCO) medium containing 100 U/mL penicillin (manufactured by Life Technologies, Inc./GIBCO), 100 μg/mL streptomycin (manufactured by Life Technologies, Inc./GIBCO), and 10% fetal bovine serum (FBS) (manufactured by Life Technologies, Inc./GIBCO) (hereinafter, referred to as “RPMI1640 common medium 1”). In Example 15 below, Leigh syndrome patients were subjected to skin biopsy to obtain skin fibroblast cells, which were then primarily cultured under conditions of 5% CO2/20% O2 and 37° C. in a DMEM low glucose (manufactured by Life Technologies, Inc./GIBCO) medium containing 100 U/mL penicillin (manufactured by Life Technologies, Inc./GIBCO), 100 μg/mL streptomycin (manufactured by Life Technologies, Inc./GIBCO), and 1% FBS (manufactured by Life Technologies, Inc./GIBCO) (hereinafter, referred to as “DMEM low glucose common medium”) to isolate cells (Leigh cells). In Example 13 below, a human kidney-derived cell line HK-2 (obtained from ATCC) was cultured and maintained under conditions of 5% CO2/20% O2 and 37° C. in a DMEM/F12 (manufactured by Life Technologies, Inc./GIBCO) medium containing 100 U/mL penicillin (manufactured by Life Technologies, Inc./GIBCO), 100 μg/mL streptomycin (manufactured by Life Technologies, Inc./GIBCO), and 10% fetal bovine serum (manufactured by Life Technologies, Inc./GIBCO) (hereinafter, referred to as “DMEM/F12 common medium”). In Example 14 below, a rat islet of Langerhans-derived cell line ISN-1e (kindly provided by Hisamitsu Ishihara, Nihon University School of Medicine) was cultured and maintained under conditions of 5% CO2/20% O2 and 37° C. in an RPMI1640 (manufactured by Life Technologies, Inc./GIBCO) medium containing 10 mM HEPES (manufactured by Sigma-Aldrich Corp.), 2 mM glutamine (manufactured by Sigma-Aldrich Corp.), 50 μM β-mercaptoethanol (manufactured by Sigma-Aldrich Corp.), 100 U/mL penicillin (manufactured by Life Technologies, Inc./GIBCO), 100 μg/mL streptomycin (manufactured by Life Technologies, Inc./GIBCO), and 10% FBS (manufactured by Life Technologies, Inc./GIBCO) (hereinafter, referred to as “RPMI1640 common medium 2”).
The Leigh cells were seeded at 4×10^4 cells/well to a 24-well cell culture plate and then cultured for 24 hours. The glutathione synthesis inhibitor BSO (L-buthionine sulphoximine) (manufactured by Sigma-Aldrich Corp.) was mixed at […] into a medium. After culture for 24 hours in the presence of BSO, each of 5 types of compounds (compounds #2, 4, 5, 21, and 35) was mixed at 10 μM into the medium. After culture for 4 days in the presence of these 5 types of compounds, the number of live cells was measured using Cell Counting Kit-8 (manufactured by Dojindo Laboratories) to calculate the survival rate of the cells (“BSO+#2”, “BSO+#4”, “BSO+#5”, “BSO+#21”, and “BSO+#35” of FIG. 17). […]

[4] = test system: ATP production in Hep3B cells; experiment: ATP production in Hep3B cells; format: cell-based, human; conditions: for increase of ATP concentration in cells relative to the normal level: at least in 3 hours; for amount of ATP produced (FIG. 8): compound 10 μM, 24 hours, ratio to DMSO = 1
Procedure: The Hep3B cells were seeded at 1×10^4 cells/well to a 24-well cell culture plate and then cultured under normal oxygen (20% O2) for 24 hours. Each of 36 types of compounds (compounds #1 to 15, 17 to 31, and 34 to 39) was mixed at a concentration of 10 μM into RPMI1640 common medium 1. After further culture under normal oxygen (20% […]) for 3 hours, 6 hours, or 24 hours, the concentration of ATP produced in the medium was measured using ATP Assay Reagent of “Cells” (manufactured by Toyo B-Net Co., Ltd.) and GloMa 96 Microplate Luminometer (manufactured by Promega K.K.). Hep3B cells cultured in the absence of the compound (DMSO added [1%]) (“DMSO” of FIGS. 6 to 8) were used as a negative control. Hep3B cells cultured in the presence of HIF activators (FG-4592 [10 μM], DMOG [10 μM], 3,4-DHB [10 μM], and ciclopirox[10 μM]) (“FG”, “DMOG”, “34-DHB”, and “Ciclo”, respectively, of FIGS. 6 to 8) and Hep3B cells cultured in the presence of a transcriptional repressor GATA-specific inhibitor of erythropoietin (K7174 [10 μM]) (“K7174” of FIGS. 6 to 8) were used as positive controls.

Row | SMILES | melting point | amount of ATP produced (FIG. 8) [4] | also measured
1 | CCCCOc1ccc2[nH]cc(CC(=O)O)c2c1 [compound #39, 5-(1-Butoxy)-3-indoleacetic acid] | 137.8 to 141.1 °C | – | –
2 | O=C(CC(C(=O)O)c1c[nH]c2ccccc12)c1ccc(Cl)cc1 (stereo not shown) [compound #2, 4-(4-Chlorophenyl)-2-(1H-indol-3-yl)-4-oxo-butanoic acid] | – | – | effect on erythropoietin gene promoter transcriptional activity compared with HIF activator FG-4592 [1]: superior to the effect of the existing HIF activator (FG-4592); transcription level of the erythropoietin gene promoter [1]: increase the transcription level; mRNA expression level of the erythropoietin gene [2]: increase the mRNA expression level; cell death of the Leigh cells by BSO [3]: efficiently suppress the cell death
3 | CCCCCOc1ccc2cccc(CC(=O)O)c2c1 [compound #34, α-(7-Pentoxy-1-naphthalenyl)-acetic acid] | 104 to 106 °C | – | increase of ATP concentration in cells relative to the normal level [4]: two or more times the normal level
4 | CCCCn1cc(CC(=O)O)c2ccccc21 [compound #29, N-Butyl-3-indoleacetic acid] | – | enhance the amount of ATP produced | –
5 | CCn1cc(CC(=O)O)c2ccccc21 [compound #27, N-Ethyl-3-indoleacetic acid] | – | enhance the amount of ATP produced | –
6 | CCCCOc1ccc2cccc(CC(=O)O)c2c1 [compound #33, α-(7-Butoxy-1-naphthalenyl)-acetic acid] | 102 to 104 °C | – | –
7 | CCOc1ccc2[nH]cc(CC(=O)O)c2c1 [compound #37, 5-Ethoxy-3-indoleacetic acid] | 86 to 92.7 °C | – | –
8 | CCCOc1ccc2[nH]cc(CC(=O)O)c2c1 [compound #38, 5-(1-Propoxy)-3-indoleacetic acid] | 133.6 to 136.8 °C | enhance the amount of ATP produced | –
9 | O=C(CC(C(=O)O)c1c[nH]c2ccccc12)c1ccccc1 (stereo not shown) [compound #20, 4-Phenyl-2-(1H-indol-3-yl)-4-oxo-butanoic acid] | 149 to 150 °C | – | –
10 | COc1ccc2[nH]cc(CC(=O)O)c2c1 [compound #36, 5-Methoxy-3-indoleacetic acid] | – | – | increase of ATP concentration in cells relative to the normal level [4]: two or more times the normal level
11 | CCC(C)CCC(C(=O)O)c1c[nH]c2ccccc12 (stereo not drawn) [compound #18, α-(3-Methyl-1-pentyl)-3-indoleacetic acid] | – | – | effect on erythropoietin gene promoter transcriptional activity compared with HIF activator FG-4592 [1]: superior to the effect of the existing HIF activator (FG-4592); transcription level of the erythropoietin gene promoter [1]: increase the transcription level
12 | CCCCCCn1cc(CC(=O)O)c2ccccc21 [compound #30, N-Hexyl-3-indoleacetic acid] | – | enhance the amount of ATP produced | –
13 | CCCn1cc(C(CC(=O)c2ccc(C)cc2C)C(=O)O)c2ccccc21 (stereo not shown) [compound #6, 4-(2,4-Dimethylphenyl)-2-(1-propyl-1H-indol-3-yl)-4-oxo-butanoic acid] | 139 to 141 °C | – | –
